Data from ChEMBL document CHEMBL1201862, “PubChem BioAssay data set” (2004).
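1) Cells in 96-well plates. 2) Compound, 48 h, 5 concentrations. 3) Linear interpolation between surrounding doses. 4) Unreached endpoint = highest concentration. GI50 marks 50% less growth.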 The source made the active and inactive calls. No stated cut-off is given here; in the data, active = GI50 up to about 1.1 µM and inactive = higher.

Tests used:
Assay in all cases: NCI-60 cell line screen, 48 h
[1] = system: SNB-78
[2] = system: KM-20L2
[3] = system: DMS-273
[4] = system: DMS-114
[5] = system: HOP-18
[6] = system: LXFL 529
[7] = system: M19-MEL
[8] = system: XF498
[9] = system: RXF 631

Measured: GI50

NC(=S)Nc1nnc(-c2ccc(-c3nnc(NC(N)=S)o3)cc2)o1
inactive: [1] > 100 µM | [2] > 100 µM | [3] > 100 µM | [4] > 100 µM | [5] > 100 µM | [6] > 100 µM | [7] > 100 µM

N=C(N)SCCc1cn2ccccc2n1
inactive: [1] > 100 µM | [8] > 100 µM | [3] > 100 µM | [4] > 100 µM | [5] > 100 µM | [7] > 100 µM

Cc1cc2c(cc1C)[n+]([O-])c(C(=O)/C=C/c1ccccc1Cl)c(C)[n+]2[O-]
inactive: [1] 33.7 µM | [2] 35.2 µM | [8] 18.5 µM | [3] 29.4 µM | [4] 21.8 µM | [5] 29.3 µM | [9] 24.7 µM | [6] 18.2 µM | [7] 36 µM

CN1C(=O)CCC1(O)C1C=CC=CC1 (configuration not stated)
inactive: [1] > 100 µM | [2] > 100 µM | [8] > 100 µM | [3] > 100 µM | [4] > 100 µM | [9] > 100 µM | [6] > 100 µM | [7] > 100 µM

COC(=O)[C@]12CC=C3O[C@@H]4OC5(CCCCC5)O[C@@H]4[C@H]3C1C(=O)C=CC2=O (some centres not stated)
inactive: [1] 18.8 µM | [2] 19.7 µM | [8] 12.6 µM | [3] 18.1 µM | [4] 17.5 µM | [5] 18.5 µM | [6] 9.84 µM | [7] 16 µM

Cc1ccc(NC(=O)CCC(=O)C(C#N)c2ccccc2)cc1C (configuration not stated)
inactive: [1] > 100 µM | [2] > 100 µM | [8] > 100 µM | [3] > 100 µM | [4] > 100 µM | [5] > 100 µM | [9] > 100 µM | [6] > 100 µM

CC(OC1CC(=O)CC2C(=O)C=CC(=O)C12)c1ccccc1 (configuration not stated)
inactive: [1] 19.5 µM | [2] 17.3 µM | [8] 15.8 µM | [3] 19.1 µM | [4] 8.05 µM | [5] 18.2 µM | [6] 7.33 µM | [7] 16.1 µM

COC(=O)CCC1(NS(=O)(=O)c2ccc(C)cc2)CCC(C(C)(C)C)CC1 (configuration not stated)
inactive: [1] 21.3 µM | [8] 14.8 µM | [3] 12.9 µM | [4] 4.58 µM | [9] 15.9 µM | [6] 15 µM | [7] 11.4 µM

Sc1nnc(COc2ccc(Cl)cc2Cl)[nH]1
inactive: [1] > 100 µM | [2] > 100 µM | [8] > 100 µM | [3] > 100 µM | [4] > 100 µM | [6] > 100 µM | [7] > 100 µM

Nc1c(Cl)ncnc1NCCCNc1ncnc(Cl)c1N
inactive: [1] > 100 µM | [2] > 100 µM | [8] > 100 µM | [3] > 100 µM | [4] > 100 µM | [5] > 100 µM | [6] > 100 µM | [7] > 100 µM

COC(=O)C1[C@H](c2ccc3c(c2)OCO3)OC(=O)[C@]1(C(=O)OC)C(=O)c1ccc(OC)c(OC)c1 (some centres not stated)
inactive: [1] 56.8 µM | [2] 56 µM | [8] 81.8 µM | [3] 25.1 µM | [5] > 100 µM | [6] 41.5 µM | [7] 51.6 µM

O=C(CCN1CCN(c2cccc(Cl)c2)CC1)N1CCc2c([nH]c3ccccc23)C1c1cccnc1 (configuration not stated)
inactive: [1] 3.72 µM | [2] 5.52 µM | [8] 3.27 µM | [3] 8.28 µM | [4] 6.65 µM | [5] 12.8 µM | [9] 2.59 µM | [6] 4.19 µM | [7] 13.3 µM

COc1ccc(OC)c2c(=S)c3ccccc3[nH]c12
inactive: [2] > 100 µM | [8] > 100 µM | [3] > 82.8 µM | [4] 32 µM | [9] 41.5 µM | [6] 56 µM | [7] > 100 µM

COc1cc(C2C(Cl)C(=O)N2n2cnc3ccccc3c2=O)cc(OC)c1OC (configuration not stated)
inactive: [1] > 100 µM | [2] 64.3 µM | [8] > 100 µM | [3] 41 µM | [4] 43.4 µM | [5] > 100 µM | [6] > 100 µM | [7] > 100 µM

COc1cc(CNc2ccc(C(C)C)cc2)cc(OC)c1OC
inactive: [1] 35.1 µM | [2] 16.8 µM | [8] 32.3 µM | [4] 24.9 µM | [5] 34.1 µM | [6] 18.9 µM | [7] 17.1 µM

O=C(N/C(=C\c1ccc([N+](=O)[O-])cc1)c1nc2ccccc2[nH]1)c1ccccc1
inactive: [1] > 100 µM | [2] > 100 µM | [4] > 100 µM | [5] > 100 µM | [9] 43.7 µM | [6] 39.4 µM | [7] > 100 µM

CC(=O)Nc1ccc(-c2nnc(SCC(=O)Nc3cccc([N+](=O)[O-])c3)o2)cc1
inactive: [1] 18 µM | [2] 17.8 µM | [3] 10.9 µM | [4] 10.2 µM | [5] 21.1 µM | [6] 2.99 µM | [7] 15.1 µM

O=S1(=O)OCCOS(=O)(=O)C1Br
inactive: [1] > 100 µM | [3] > 100 µM | [4] > 100 µM | [9] > 100 µM | [6] > 100 µM | [7] > 100 µM

Cc1ccc(S(=O)(=O)OC2CSSCC2OS(=O)(=O)c2ccc(C)cc2)cc1 (configuration not stated)
inactive: [1] 20 µM | [2] 14 µM | [3] 10.1 µM | [4] 11.9 µM | [5] 17.4 µM | [9] 13.6 µM | [6] 11.4 µM | [7] 13.4 µM

O=C1CC2CCCCC2=C1O (configuration not stated)
inactive: [1] > 100 µM | [8] > 100 µM | [3] > 100 µM | [4] > 100 µM | [9] > 100 µM | [6] > 100 µM | [7] > 100 µM

CCCCCCCC(=O)OC[C@H](C[As](=O)(O)O)OC(=O)CCCCCCC
inactive: [1] 14 µM | [2] 16.6 µM | [3] 11.3 µM | [4] 6.84 µM | [5] 22 µM | [6] 9.55 µM | [7] 13.3 µM

C#CC1(O)CC(c2ccccc2)N(C)C(c2ccccc2)C1 (configuration not stated)
inactive: [1] > 100 µM | [2] > 100 µM | [3] > 100 µM | [4] > 100 µM | [9] > 100 µM | [6] > 100 µM | [7] > 100 µM

COc1cccc(NC(=O)/C(CS(=O)(=O)CCC(C(C)=O)C(C)=O)=N/NC(C)(C)C)c1
inactive: [1] > 100 µM | [2] > 100 µM | [3] > 100 µM | [4] > 100 µM | [5] 42.9 µM | [6] > 100 µM

COc1ccc(OC)c(/C=C(/C#N)c2ccccc2)c1
inactive: [2] 16.6 µM | [3] 4.22 µM | [5] > 100 µM | [6] 34.3 µM | [7] 22.2 µM

c1ccc2c(c1)[nH]c1c2nc2ncccn21
inactive: [1] > 100 µM | [2] > 100 µM | [8] > 100 µM | [3] > 100 µM | [4] > 100 µM | [9] > 100 µM | [6] > 100 µM | [7] > 100 µM
